Experimental data from ChEMBL document CHEMBL5715945 (Cancer Biol Ther, 2010).
The source made the active and inactive calls. The calls are words filed in the database; no cut-off is given here.

Key:
ID8 [1] = assay: Upregulation of FAK level in mouse ID8 cells harbouring mCherry red fluorescent protein at 0.1 to 1 uM incubated for 1 hr by immunoblotting analysis; type: functional, cell-based; conditions: dose 0.1-1 µM
[2] = target: High affinity nerve growth factor receptor (Homo sapiens) (UniProt P04629); assay: Inhibition of TrkA (unknown origin) at 1 uM relative to control; values are per cent of control
Sequence of High affinity nerve growth factor receptor (Homo sapiens) (P04629 33-796 limits assumed): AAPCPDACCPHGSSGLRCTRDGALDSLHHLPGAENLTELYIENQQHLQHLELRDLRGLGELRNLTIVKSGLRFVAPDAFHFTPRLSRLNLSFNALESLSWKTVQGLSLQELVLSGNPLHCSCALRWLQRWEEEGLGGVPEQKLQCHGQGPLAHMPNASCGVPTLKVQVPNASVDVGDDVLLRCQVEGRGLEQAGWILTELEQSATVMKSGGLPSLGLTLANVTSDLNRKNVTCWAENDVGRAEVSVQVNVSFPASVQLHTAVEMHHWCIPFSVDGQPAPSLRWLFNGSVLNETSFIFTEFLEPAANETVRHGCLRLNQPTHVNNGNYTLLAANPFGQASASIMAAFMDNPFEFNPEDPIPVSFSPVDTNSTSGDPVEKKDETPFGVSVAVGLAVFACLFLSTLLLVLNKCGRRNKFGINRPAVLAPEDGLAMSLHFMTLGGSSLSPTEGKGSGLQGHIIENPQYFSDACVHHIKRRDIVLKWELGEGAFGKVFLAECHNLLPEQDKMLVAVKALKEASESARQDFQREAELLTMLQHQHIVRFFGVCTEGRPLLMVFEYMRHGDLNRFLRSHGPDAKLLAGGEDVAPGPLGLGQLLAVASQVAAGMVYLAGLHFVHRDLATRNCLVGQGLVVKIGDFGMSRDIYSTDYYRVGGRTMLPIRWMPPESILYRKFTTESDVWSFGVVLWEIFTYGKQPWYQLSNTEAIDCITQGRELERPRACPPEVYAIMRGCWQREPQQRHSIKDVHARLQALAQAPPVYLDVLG

[3] = target: Epidermal growth factor receptor (Homo sapiens) (UniProt P00533); assay: Inhibition of EGFR (unknown origin) at 0.1 uM relative to control; values are per cent of control
Sequence of Epidermal growth factor receptor (Homo sapiens) (P00533 whole entry): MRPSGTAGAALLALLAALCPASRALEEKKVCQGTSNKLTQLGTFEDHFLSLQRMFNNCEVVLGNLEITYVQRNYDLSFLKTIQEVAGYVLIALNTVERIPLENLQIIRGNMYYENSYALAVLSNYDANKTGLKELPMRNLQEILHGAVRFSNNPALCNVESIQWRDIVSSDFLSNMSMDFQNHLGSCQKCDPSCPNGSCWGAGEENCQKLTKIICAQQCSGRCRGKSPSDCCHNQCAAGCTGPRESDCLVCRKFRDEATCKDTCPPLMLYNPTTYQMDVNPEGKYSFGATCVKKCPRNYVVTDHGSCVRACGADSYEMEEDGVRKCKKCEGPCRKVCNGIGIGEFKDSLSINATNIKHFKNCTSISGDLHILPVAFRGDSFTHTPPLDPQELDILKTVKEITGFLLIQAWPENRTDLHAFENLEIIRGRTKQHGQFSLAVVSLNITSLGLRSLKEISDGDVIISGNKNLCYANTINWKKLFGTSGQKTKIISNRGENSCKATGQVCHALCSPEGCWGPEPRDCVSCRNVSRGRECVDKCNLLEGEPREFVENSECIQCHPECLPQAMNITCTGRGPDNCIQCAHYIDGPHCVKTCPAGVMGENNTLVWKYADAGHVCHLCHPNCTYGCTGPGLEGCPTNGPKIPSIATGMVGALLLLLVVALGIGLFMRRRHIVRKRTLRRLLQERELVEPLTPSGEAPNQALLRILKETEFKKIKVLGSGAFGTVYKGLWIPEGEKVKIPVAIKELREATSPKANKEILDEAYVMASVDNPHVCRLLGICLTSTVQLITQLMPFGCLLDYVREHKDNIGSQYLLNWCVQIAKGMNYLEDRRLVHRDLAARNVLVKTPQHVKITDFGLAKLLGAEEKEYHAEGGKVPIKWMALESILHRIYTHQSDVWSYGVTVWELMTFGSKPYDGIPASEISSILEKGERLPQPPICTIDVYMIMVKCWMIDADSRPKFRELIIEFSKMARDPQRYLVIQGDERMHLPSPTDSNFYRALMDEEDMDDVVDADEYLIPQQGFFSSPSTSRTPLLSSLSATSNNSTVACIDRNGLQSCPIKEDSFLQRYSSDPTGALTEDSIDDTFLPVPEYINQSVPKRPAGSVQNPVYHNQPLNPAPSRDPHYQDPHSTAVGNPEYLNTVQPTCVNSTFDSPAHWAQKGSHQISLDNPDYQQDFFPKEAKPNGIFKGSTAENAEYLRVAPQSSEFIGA

[4] = Toxicity in C57BL6 mouse implanted with mouse ID8 cells assessed as change in body weight at 0.5 mg/ml administered as solution in 5% sucrose measured after 30 days; type: cell-based; conditions: id8, 720 h, time 30 day
[5] = target: Focal adhesion kinase 1 (Mus musculus) (UniProt P34152); assay: Inhibition of FAK phosphorylation at Y397 residue in mouse 4T1 adherent cells at 0.1 uM incubated for 24 hrs by immunoblotting analysis; type: cell-based
Sequence of Focal adhesion kinase 1 (Mus musculus) (P34152 whole entry): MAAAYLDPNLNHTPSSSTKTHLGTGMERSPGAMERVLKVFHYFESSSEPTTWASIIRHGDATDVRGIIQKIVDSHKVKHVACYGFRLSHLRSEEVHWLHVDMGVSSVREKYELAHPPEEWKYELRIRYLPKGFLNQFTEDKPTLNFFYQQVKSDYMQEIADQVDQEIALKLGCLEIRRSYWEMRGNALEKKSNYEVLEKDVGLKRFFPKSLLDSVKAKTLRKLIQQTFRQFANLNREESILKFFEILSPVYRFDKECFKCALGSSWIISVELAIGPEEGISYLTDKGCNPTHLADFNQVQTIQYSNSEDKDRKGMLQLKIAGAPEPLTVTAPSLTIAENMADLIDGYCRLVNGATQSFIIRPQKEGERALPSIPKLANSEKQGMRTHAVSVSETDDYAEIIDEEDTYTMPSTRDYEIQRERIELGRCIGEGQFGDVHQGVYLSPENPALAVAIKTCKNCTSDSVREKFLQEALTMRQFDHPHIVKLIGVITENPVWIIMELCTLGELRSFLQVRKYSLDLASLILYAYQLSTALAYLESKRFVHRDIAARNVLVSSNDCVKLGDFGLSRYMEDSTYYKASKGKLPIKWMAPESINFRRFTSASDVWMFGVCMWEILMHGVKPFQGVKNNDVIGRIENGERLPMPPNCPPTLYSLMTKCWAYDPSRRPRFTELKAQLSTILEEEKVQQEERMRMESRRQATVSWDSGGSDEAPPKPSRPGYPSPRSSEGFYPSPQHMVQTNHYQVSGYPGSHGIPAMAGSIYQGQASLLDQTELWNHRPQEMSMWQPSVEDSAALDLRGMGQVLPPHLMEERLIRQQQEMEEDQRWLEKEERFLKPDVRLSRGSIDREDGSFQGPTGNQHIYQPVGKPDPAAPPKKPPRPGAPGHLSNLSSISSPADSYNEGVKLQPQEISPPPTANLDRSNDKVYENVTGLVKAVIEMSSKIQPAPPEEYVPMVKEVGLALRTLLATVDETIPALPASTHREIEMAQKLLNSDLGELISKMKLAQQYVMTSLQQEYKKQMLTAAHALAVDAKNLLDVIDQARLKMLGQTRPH

4T1 [6] = assay: Induction of cell cycle arrest in mouse 4T1 adherent cells assessed as accumulation at G0/G1 phase at 1 uM measured after 72 hrs by PI staining based flow cytometry analysis (reference value: 76.8%); type: functional
4T1 [7] = assay: Inhibition of cell adhesion to fibronectin in mouse 4T1 cells at 0.4 uM incubated for 4 hrs by […]; type: functional, cell-based
[8] = target: High affinity nerve growth factor receptor (Homo sapiens) (UniProt P04629); assay: Inhibition of TrkA (unknown origin) at 0.1 uM relative to control; values are per cent of control
4T1 [9] = assay: Antiproliferative activity against mouse 4T1 cells cultured as 3D spheroids assessed as maximal effect at 0.2 uM measured after 72 hrs by phase contrast microscopic analysis; type: functional, cell-based
4T1 [10] = assay: Antiproliferative activity against mouse 4T1 cells cultured as 3D spheroids assessed as fold reduction in average spheroid size at 0.1 uM measured after 72 hrs by phase contrast microscopic analysis; type: functional
[11] = target: Epidermal growth factor receptor (Homo sapiens) (UniProt P00533); assay: Inhibition of EGFR (unknown origin) at 1 uM relative to control; values are per cent of control
[12] = target: Rho-associated protein kinase 1 (Homo sapiens) (UniProt Q13464); assay: Inhibition of ROCK1 (unknown origin) at 1 uM relative to control; values are per cent of control
[13] = target: Serine/threonine-protein kinase Nek6 (Homo sapiens) (UniProt Q9HC98); assay: Inhibition of NEK6 (unknown origin) at 0.1 uM relative to control; values are per cent of control
Sequence of Serine/threonine-protein kinase Nek6 (Homo sapiens) (Q9HC98 whole entry): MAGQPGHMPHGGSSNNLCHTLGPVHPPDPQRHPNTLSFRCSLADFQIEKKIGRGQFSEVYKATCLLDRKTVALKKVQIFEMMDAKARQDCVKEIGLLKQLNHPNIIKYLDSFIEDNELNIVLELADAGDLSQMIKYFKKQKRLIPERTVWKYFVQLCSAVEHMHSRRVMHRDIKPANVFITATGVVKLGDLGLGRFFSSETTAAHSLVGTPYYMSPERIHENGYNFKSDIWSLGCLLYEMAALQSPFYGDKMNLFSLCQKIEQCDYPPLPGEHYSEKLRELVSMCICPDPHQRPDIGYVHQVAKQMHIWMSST

[14] = target: Tyrosine-protein kinase ABL1 (Homo sapiens) (UniProt P00519); assay: Inhibition of Abl (unknown origin) at 0.1 uM relative to control; values are per cent of control
[15] = target: Serine/threonine-protein kinase Nek6 (Homo sapiens) (UniProt Q9HC98); assay: Inhibition of NEK6 (unknown origin) at 1 uM relative to control; values are per cent of control
4T1 [16] = assay: Induction of cell cycle arrest in mouse 4T1 adherent cells assessed as accumulation at S phase at 1 uM measured after 72 hrs by PI staining based flow cytometry analysis (reference value: 12.5%); type: functional
4T1 [17] = assay: Effect on p130Cas phosphorylation in mouse 4T1 cultured as […] at 0.1 to 1 uM incubated for 24 hrs by immunoblotting analysis; type: functional, cell-based; conditions: dose 0.1-1 µM
ID8 [18] = assay: Antitumor activity against mouse ID8 suspended cells assessed as reduction in cell viability measured after 72 hrs by trypan blue staining based analysis; type: functional; conditions: dose 0.1 µM
[19] = target: Ephrin type-A receptor 1 (Homo sapiens) (UniProt P21709); assay: Inhibition of EphA1 (unknown origin) at 1 uM relative to control; values are per cent of control
Sequence of Ephrin type-A receptor 1 (Homo sapiens) (P21709 whole entry): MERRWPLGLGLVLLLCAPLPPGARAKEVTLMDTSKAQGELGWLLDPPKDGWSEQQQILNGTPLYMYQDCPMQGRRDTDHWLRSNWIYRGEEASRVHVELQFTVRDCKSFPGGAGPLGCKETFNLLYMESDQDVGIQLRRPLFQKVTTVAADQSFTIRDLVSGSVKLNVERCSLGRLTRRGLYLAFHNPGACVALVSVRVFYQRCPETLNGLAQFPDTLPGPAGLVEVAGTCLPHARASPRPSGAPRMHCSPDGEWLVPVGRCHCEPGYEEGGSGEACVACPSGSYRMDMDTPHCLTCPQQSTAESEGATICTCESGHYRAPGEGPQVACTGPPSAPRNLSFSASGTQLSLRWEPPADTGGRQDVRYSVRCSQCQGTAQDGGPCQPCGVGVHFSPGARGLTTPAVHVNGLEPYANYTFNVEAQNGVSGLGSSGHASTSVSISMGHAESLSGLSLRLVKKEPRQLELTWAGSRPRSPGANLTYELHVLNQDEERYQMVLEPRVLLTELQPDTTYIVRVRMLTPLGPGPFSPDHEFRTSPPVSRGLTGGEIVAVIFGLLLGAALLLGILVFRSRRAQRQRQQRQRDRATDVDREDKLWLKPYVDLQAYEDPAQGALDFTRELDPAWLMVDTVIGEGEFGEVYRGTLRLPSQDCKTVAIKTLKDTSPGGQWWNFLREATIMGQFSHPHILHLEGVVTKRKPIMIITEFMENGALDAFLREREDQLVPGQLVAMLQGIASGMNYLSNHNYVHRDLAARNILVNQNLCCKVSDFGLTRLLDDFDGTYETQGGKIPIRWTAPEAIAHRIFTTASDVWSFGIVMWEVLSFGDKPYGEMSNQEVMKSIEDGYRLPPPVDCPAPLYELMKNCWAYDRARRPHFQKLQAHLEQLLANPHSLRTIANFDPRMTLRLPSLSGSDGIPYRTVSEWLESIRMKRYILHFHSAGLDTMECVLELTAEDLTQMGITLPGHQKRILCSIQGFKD

[20] = target: Dual specificity mitogen-activated protein kinase kinase 1 (Homo sapiens) (UniProt Q02750); assay: Inhibition of MEK1 (unknown origin) at 0.1 uM relative to control; values are per cent of control
Sequence of Dual specificity mitogen-activated protein kinase kinase 1 (Homo sapiens) (Q02750 whole entry): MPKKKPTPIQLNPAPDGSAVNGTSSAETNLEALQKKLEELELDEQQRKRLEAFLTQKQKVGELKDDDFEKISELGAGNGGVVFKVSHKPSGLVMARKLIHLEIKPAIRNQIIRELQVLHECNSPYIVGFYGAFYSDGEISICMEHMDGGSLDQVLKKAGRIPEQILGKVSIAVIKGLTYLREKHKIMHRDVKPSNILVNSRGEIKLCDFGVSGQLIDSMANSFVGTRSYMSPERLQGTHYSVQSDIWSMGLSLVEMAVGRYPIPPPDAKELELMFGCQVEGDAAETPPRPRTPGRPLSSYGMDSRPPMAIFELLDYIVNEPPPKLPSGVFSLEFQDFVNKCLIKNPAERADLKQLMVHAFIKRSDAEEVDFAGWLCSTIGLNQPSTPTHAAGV

4T1 [21] = assay: Effect on p130Cas phosphorylation at Tyr249 residue in mouse 4T1 cultured as 3D spheroids at 0.1 uM incubated for 24 hrs by immunoblotting analysis; type: functional, cell-based
4T1 [22] = assay: Induction of apoptosis in mouse 4T1 adherent cells at 0.1 to 1 uM incubated for 24 to 48 hrs by PI staining based flow cytometry analysis; type: functional, cell-based; conditions: dose 0.1-1 µM, time 24-48 hrs
[23] = target: Insulin receptor (Homo sapiens) (UniProt P06213); assay: Inhibition of IR (unknown origin) at 0.1 uM relative to control; values are per cent of control
[24] = target: Casein kinase I isoform gamma-1 (Homo sapiens) (UniProt Q9HCP0); assay: Inhibition of CK1g1 (unknown origin) at 1 uM relative to control; values are per cent of control
4T1 [25] = assay: Upregulation of FAK level in mouse 4T1 cells harbouring mCherry red fluorescent protein at 0.1 to 1 uM incubated for 1 hr by immunoblotting analysis; type: functional, cell-based; conditions: dose 0.1-1 µM
[26] = target: Activated CDC42 kinase 1 (Homo sapiens) (UniProt Q07912); assay: Inhibition of ACK1 (unknown origin) at 1 uM relative to control; values are per cent of control
4T1 [27] = assay: Antitumor activity against mouse 4T1 cells harbouring mCherry red fluorescent protein implanted in BALB/c mouse assessed as fold reduction in tumor weight at 100 mg/kg, sc bid measured after 5 days; type: functional; conditions: time 5 day
[28] = target: RAF proto-oncogene serine/threonine-protein kinase (Homo sapiens) (UniProt P04049); assay: Inhibition of c-RAF (unknown origin) at 0.1 uM relative to control; values are per cent of control
[29] = target: Serine/threonine-protein kinase Chk1 (Homo sapiens) (UniProt O14757); assay: Inhibition of CHK1 (unknown origin) at 1 uM relative to control; values are per cent of control
4T1 [30] = assay: Inhibition of cell migration in mouse 4T1 cells assessed as maximal efficacy at 0.4 uM incubated for 4 hrs by millicell-motility assay; type: functional
[31] = target: Focal adhesion kinase 1 (Mus musculus) (UniProt P34152); assay: Inhibition of FAK phosphorylation at Tyr397 residue in mouse 4T1 cells harbouring mCherry red fluorescent protein at 0.1 to 1 uM incubated for 1 hr by immunoblotting analysis; type: cell-based; conditions: dose 0.1-1 µM
[32] = target: Protein kinase C alpha type (Homo sapiens) (UniProt P17252); assay: Inhibition of PKCa (unknown origin) at 1 uM relative to control; values are per cent of control

Structure (SMILES): CNC(=O)c1ccccc1Nc1cc(Nc2ccc(N3CCOCC3)cc2OC)ncc1C(F)(F)F [VS-4718]
- Activity (ID8 [1]): Active
- residual activity [2]: 27%
- residual activity [3]: 99%
- Activity [4]: Non-Toxic
- inhibition [5]: Active
- Activity (4T1 [6]): 65.7%
- inhibition (4T1 [7]): inactive
- residual activity [8]: 80%
- Activity (4T1 [9]): Active
- fold change (FC) (4T1 [10]): ~3
- residual activity [11]: 106%
- residual activity [12]: 90%
- residual activity [13]: 110%
- residual activity [14]: 104%
- residual activity [15]: 107%
- Activity (4T1 [16]): 10%
- Activity (4T1 [17]): inactive
- Activity (ID8 [18]): Dose-Dependent Effect
- residual activity [19]: 108%
- residual activity [20]: 79%
- Activity (4T1 [21]): Active
- Activity (4T1 [22]): inactive
- residual activity [23]: 84%
- residual activity [24]: 107%
- Activity (4T1 [25]): Active
- residual activity [26]: 16%
- fold change (FC) (4T1 [27]): 2
- residual activity [28]: 142%
- residual activity [29]: 105%
- Imax (4T1 [30]): ~60%
- inhibition [31]: Active
- residual activity [32]: 96%
